In PubChem BioAssay (NCI):
“And” between values parts separate entries of the source, which are not always exact repeats. Identical values can stand only once.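 96-well plates; 48 h exposure; 5 concentrations. Endpoints by linear interpolation between flanking doses. Not reached: highest tested concentration assigned. Here, GI50 denotes the concentration required for 50% inhibition of growth. At the TGI there is no net growth.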

Tests used:
Experiment in all cases: inhibition of tumour cell growth, NCI panel, 48 h
EKVX NSCLC = tested on: EKVX NSCLC
HT29 colon = tested on: HT29 colon
MALME-3M melanoma = tested on: MALME-3M melanoma
OVCAR-4 ovarian = tested on: OVCAR-4 ovarian
OVCAR-8 ovarian = tested on: OVCAR-8 ovarian
PC-3 prostate = tested on: PC-3 prostate
RXF 393 renal = tested on: RXF 393 renal
SF-268 CNS = tested on: SF-268 CNS
SK-MEL-28 melanoma = tested on: SK-MEL-28 melanoma
SNB-19 CNS = tested on: SNB-19 CNS

**Q.** With `COc1cc(/C=C/C(=O)c2cccc(-n3cc(-c4ccccc4)[nH]c3=O)c2)ccc1O` as the compound, how does the GI50 (EKVX NSCLC) read?
**A.** The GI50 was 6.38 µM.

**Q.** And the TGI (EKVX NSCLC)?
**A.** The TGI was 36.3 µM.

**Q.** And the GI50 (HT29 colon)?
**A.** Its GI50 is 3.77 µM.

**Q.** And the TGI (HT29 colon)?
**A.** The TGI was > 100 µM.

**Q.** What about the GI50 (MALME-3M melanoma) of the same compound?
**A.** Its GI50 is 5.25 µM.

**Q.** What about the TGI (MALME-3M melanoma) of the same compound?
**A.** Its TGI is 17.1 µM.

**Q.** What about the GI50 (OVCAR-4 ovarian) of the same compound?
**A.** Its GI50 is 3.3 µM.

**Q.** What about the TGI (OVCAR-4 ovarian) of the same compound?
**A.** Its TGI is > 23 µM.

**Q.** What about the GI50 (OVCAR-8 ovarian) of the same compound?
**A.** The GI50 was 3.35 µM.

**Q.** And the TGI (OVCAR-8 ovarian)?
**A.** Its TGI is 17.8 µM.

**Q.** What about the GI50 (PC-3 prostate) of the same compound?
**A.** Its GI50 is 2870 nM.

**Q.** What about the TGI (PC-3 prostate) of the same compound?
**A.** Its TGI is 12 µM.

**Q.** And the GI50 (RXF 393 renal)?
**A.** The GI50 was 1780 nM.

**Q.** And the TGI (RXF 393 renal)?
**A.** The TGI was 4.12 µM.

**Q.** And the GI50 (SF-268 CNS)?
**A.** The GI50 was 2740 nM.

**Q.** What about the TGI (SF-268 CNS) of the same compound?
**A.** The TGI was 8.31 µM.

**Q.** And the GI50 (SK-MEL-28 melanoma)?
**A.** The GI50 was 722 nM.

**Q.** And the TGI (SK-MEL-28 melanoma)?
**A.** The TGI was 3.07 µM.

**Q.** What about the GI50 (SNB-19 CNS) of the same compound?
**A.** Its GI50 is 3.07 µM.

**Q.** What about the TGI (SNB-19 CNS) of the same compound?
**A.** Its TGI is 11 µM.

**Q.** With `CCN(CC)CCNc1ccc2nc(C)n3c4ccc(OC)cc4c(=O)c1c23` as the compound, how does the TGI (EKVX NSCLC) read?
**A.** Its TGI is 13.9 µM.

**Q.** And the TGI (HT29 colon)?
**A.** Its TGI is 1.99 µM.

**Q.** What about the TGI (MALME-3M melanoma) of the same compound?
**A.** The TGI was 21.7 µM.

**Q.** And the TGI (OVCAR-4 ovarian)?
**A.** The TGI was 8.25 µM.

**Q.** And the TGI (OVCAR-8 ovarian)?
**A.** The TGI was 9.25 µM.

**Q.** And the TGI (PC-3 prostate)?
**A.** The TGI was 17.5 µM.

**Q.** And the TGI (RXF 393 renal)?
**A.** Its TGI is 10.5 µM.

**Q.** What about the TGI (SF-268 CNS) of the same compound?
**A.** The TGI was 15.3 µM.

**Q.** What about the TGI (SK-MEL-28 melanoma) of the same compound?
**A.** Its TGI is 25.9 µM.

**Q.** And the TGI (SNB-19 CNS)?
**A.** Its TGI is 13.7 µM.

**Q.** With `Cc1cc(N)c2cc(NC(=O)/C=C\c3ccccc3Cl)ccc2n1` as the compound, how does the GI50 (EKVX NSCLC) read?
**A.** The GI50 was 1.53 µM.

**Q.** What about the TGI (EKVX NSCLC) of the same compound?
**A.** The TGI was 3.1 µM.

**Q.** And the GI50 (HT29 colon)?
**A.** The GI50 was 0.41 µM.

**Q.** And the TGI (HT29 colon)?
**A.** The TGI was 1.5 µM.

**Q.** What about the GI50 (MALME-3M melanoma) of the same compound?
**A.** The GI50 was 2.05 µM.

**Q.** What about the TGI (MALME-3M melanoma) of the same compound?
**A.** Its TGI is 3.89 µM.

**Q.** And the GI50 (OVCAR-4 ovarian)?
**A.** The GI50 was 0.365 µM.

**Q.** What about the TGI (OVCAR-4 ovarian) of the same compound?
**A.** The TGI was 0.971 µM.

**Q.** What about the GI50 (OVCAR-8 ovarian) of the same compound?
**A.** The GI50 was 1.61 µM.

**Q.** And the TGI (OVCAR-8 ovarian)?
**A.** Its TGI is 3.12 µM.

**Q.** And the GI50 (PC-3 prostate)?
**A.** The GI50 was 1460 nM.

**Q.** What about the TGI (PC-3 prostate) of the same compound?
**A.** The TGI was 2.84 µM.

**Q.** What about the GI50 (RXF 393 renal) of the same compound?
**A.** Its GI50 is 1450 nM.

**Q.** What about the TGI (RXF 393 renal) of the same compound?
**A.** Its TGI is 2.91 µM.

**Q.** And the GI50 (SF-268 CNS)?
**A.** The GI50 was 1440 nM.

**Q.** And the TGI (SF-268 CNS)?
**A.** Its TGI is 2.97 µM.

**Q.** And the GI50 (SK-MEL-28 melanoma)?
**A.** Its GI50 is 447 nM.

**Q.** What about the TGI (SK-MEL-28 melanoma) of the same compound?
**A.** Its TGI is 0.886 µM.

**Q.** And the GI50 (SNB-19 CNS)?
**A.** Its GI50 is 1.56 µM.

**Q.** What about the TGI (SNB-19 CNS) of the same compound?
**A.** Its TGI is 2.95 µM.

**Q.** Which results are given for `CC(C)C[C@H](NC(=O)[C@@H](N)Cc1cccc2ccccc12)B(O)O`?
**A.** GI50 (EKVX NSCLC): 1.23 µM and 0.167 µM; TGI (EKVX NSCLC): 5 µM and 3.13 µM; GI50 (HT29 colon): 0.216 µM; GI50 (MALME-3M melanoma): 0.156 µM; TGI (MALME-3M melanoma): 0.426 µM and 0.0707 µM; GI50 (OVCAR-4 ovarian): 0.0384 µM; GI50 (OVCAR-8 ovarian): 1.62 µM; GI50 (PC-3 prostate): 1120 nM; GI50 (RXF 393 renal): 136 nM; GI50 (SF-268 CNS): 246 nM and 32.6 nM; GI50 (SK-MEL-28 melanoma): 186 nM; GI50 (SNB-19 CNS): 0.11 µM; TGI (SNB-19 CNS): 50 µM and > 100 µM

**Q.** `CCOC(=O)c1c(C)n(Cc2ccc(Cl)cc2Cl)c2c1cc(O)c1[nH]c(Cc3ccccc3)nc12` was tested. Which GI50 (EKVX NSCLC) did it give?
**A.** Its GI50 is 9.49 µM.

**Q.** What about the TGI (EKVX NSCLC) of the same compound?
**A.** The TGI was 22.3 µM.

**Q.** And the GI50 (HT29 colon)?
**A.** Its GI50 is 3.89 µM.

**Q.** What about the TGI (HT29 colon) of the same compound?
**A.** Its TGI is 17.3 µM.

**Q.** What about the GI50 (MALME-3M melanoma) of the same compound?
**A.** Its GI50 is 7.26 µM.

**Q.** And the TGI (MALME-3M melanoma)?
**A.** The TGI was 28.8 µM.

**Q.** What about the GI50 (OVCAR-4 ovarian) of the same compound?
**A.** The GI50 was 4.15 µM.

**Q.** And the TGI (OVCAR-4 ovarian)?
**A.** Its TGI is 16.7 µM.

**Q.** What about the GI50 (OVCAR-8 ovarian) of the same compound?
**A.** Its GI50 is 3.19 µM.

**Q.** What about the TGI (OVCAR-8 ovarian) of the same compound?
**A.** The TGI was 11 µM.

**Q.** And the GI50 (PC-3 prostate)?
**A.** Its GI50 is 2110 nM.

**Q.** What about the TGI (PC-3 prostate) of the same compound?
**A.** The TGI was 5.62 µM.

**Q.** What about the GI50 (RXF 393 renal) of the same compound?
**A.** Its GI50 is 2400 nM.

**Q.** What about the TGI (RXF 393 renal) of the same compound?
**A.** Its TGI is 5.23 µM.

**Q.** And the GI50 (SF-268 CNS)?
**A.** Its GI50 is 2590 nM.

**Q.** What about the TGI (SF-268 CNS) of the same compound?
**A.** Its TGI is 6.21 µM.

**Q.** What about the GI50 (SK-MEL-28 melanoma) of the same compound?
**A.** The GI50 was 13000 nM.

**Q.** What about the TGI (SK-MEL-28 melanoma) of the same compound?
**A.** The TGI was 27.7 µM.

**Q.** What about the GI50 (SNB-19 CNS) of the same compound?
**A.** The GI50 was 5.54 µM.

**Q.** What about the TGI (SNB-19 CNS) of the same compound?
**A.** Its TGI is 23.1 µM.

**Q.** For `N#C/C(=C\c1ccccn1)c1nc2ccccc2o1`, which GI50 (EKVX NSCLC) is on record?
**A.** The GI50 was 24.2 µM.

**Q.** What about the TGI (EKVX NSCLC) of the same compound?
**A.** The TGI was > 100 µM.

**Q.** And the GI50 (HT29 colon)?
**A.** Its GI50 is 30.6 µM.

**Q.** What about the TGI (HT29 colon) of the same compound?
**A.** The TGI was 95.2 µM.

**Q.** And the GI50 (MALME-3M melanoma)?
**A.** The GI50 was 25.2 µM.

**Q.** What about the TGI (MALME-3M melanoma) of the same compound?
**A.** The TGI was > 100 µM.

**Q.** What about the GI50 (OVCAR-4 ovarian) of the same compound?
**A.** The GI50 was 17.3 µM.

**Q.** What about the TGI (OVCAR-4 ovarian) of the same compound?
**A.** Its TGI is 34.2 µM.

**Q.** And the GI50 (OVCAR-8 ovarian)?
**A.** The GI50 was 36.2 µM.

**Q.** And the TGI (OVCAR-8 ovarian)?
**A.** Its TGI is > 100 µM.

**Q.** What about the GI50 (PC-3 prostate) of the same compound?
**A.** The GI50 was 17600 nM.

**Q.** What about the TGI (PC-3 prostate) of the same compound?
**A.** Its TGI is 50.5 µM.

**Q.** What about the GI50 (RXF 393 renal) of the same compound?
**A.** Its GI50 is 28300 nM.

**Q.** What about the TGI (RXF 393 renal) of the same compound?
**A.** Its TGI is 82.2 µM.

**Q.** What about the GI50 (SF-268 CNS) of the same compound?
**A.** The GI50 was 31300 nM.

**Q.** What about the TGI (SF-268 CNS) of the same compound?
**A.** Its TGI is > 100 µM.

**Q.** And the GI50 (SK-MEL-28 melanoma)?
**A.** The GI50 was 20700 nM.

**Q.** What about the TGI (SK-MEL-28 melanoma) of the same compound?
**A.** The TGI was 45 µM.

**Q.** What about the GI50 (SNB-19 CNS) of the same compound?
**A.** The GI50 was 17 µM.

**Q.** What about the TGI (SNB-19 CNS) of the same compound?
**A.** The TGI was 40 µM.
